Experimental data from US20050209278A1, “Piperidinyl- and piperazinyl-sulfonylmethyl hydroxamic acids and their use as protease inhibitors” (priority 2002, published 2005).
“And” between values parts separate entries of the source, which are not always exact repeats. Equal entries are not always repeated.

Legend:
MMP-1 = molecular target: T1, MMP-1 (Homo sapiens, UniProt P03956); assay: In vitro MMP inhibition, IC50 determination (fluorogenic substrate I); format: biochemical; details: value in parenthesis; read-out: MMP-1 (IC-50)
T1 construct: made in house; host or cells: MMP-1-transfected HT-1080 cells (spent media)
T1 sequence (P03956 100-469): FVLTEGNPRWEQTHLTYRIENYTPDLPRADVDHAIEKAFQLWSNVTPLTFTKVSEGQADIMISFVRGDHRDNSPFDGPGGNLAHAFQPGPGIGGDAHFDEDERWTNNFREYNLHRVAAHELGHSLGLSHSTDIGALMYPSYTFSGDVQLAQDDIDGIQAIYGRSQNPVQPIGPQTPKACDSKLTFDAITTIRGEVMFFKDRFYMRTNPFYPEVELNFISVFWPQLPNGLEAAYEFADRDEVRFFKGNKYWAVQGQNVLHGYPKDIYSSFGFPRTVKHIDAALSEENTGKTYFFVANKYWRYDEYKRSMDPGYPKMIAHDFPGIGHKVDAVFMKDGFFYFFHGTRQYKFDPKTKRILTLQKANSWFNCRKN
Method: Several hydroxamic acids and salts thereof were analyzed in in vitro assays to determine their ability to inhibit the MMP cleavage of peptide substrates. […] and IC50 constants were calculated from the assayed hydroxamic acid-MMP interactions. Human recombinant MMP-1, MMP-2, MMP-9, MMP-13, and MMP-14 were used in this assay. All enzymes were prepared in Assignee's laboratories following usual laboratory procedures. Protocols for the preparation and use of these enzymes are available in the scientific literature. See, e.g., Enzyme Nomenclature (Academic Press, San Diego, Calif., 1992) (and the citations therein). See also, Freije et al., “Molecular cloning and expression of collagenase-3, a novel human matrix metalloproteinase produced by breast carcinomas,” J Biol. Chem., 269(24), 16766-16773 (1994). The MMP-1 proenzyme was purified from the spent media of MMP-1-transfected HT-1080 cells provided by Dr. Harold Welgus of Washington University (St. Louis, Mo.). The protein was purified on a zinc chelating column. All MMPs were activated using 4-aminophenylmercuric acetate (“APMA”, Sigma Chemical, St. Louis, Mo.) or trypsin. MMP-9 also was activated using human recombinant MMP-3 (purified in Assignee's laboratory following standard cloning and purification techniques). […] Substrate (I) was purchased from Baychem (Redwood City, Calif.), and substrate II was prepared Assignee's laboratory. Substrate I was used in the IC50 determination assays, while substrate II was used in the Ki determination assays. In the absence of MMP inhibitory activity, either substrate is cleaved at the Gly-Leu peptide bond. […] The stock solutions of the assayed hydroxamic acids (or salts thereof) were prepared in 1% dimethyl sulfoxide (DMSO). […] The experiment controls contained the same amount of Buffer A/DMSO as the assayed sample, but contained no hydroxamic acid (or salt thereof). The assays from which the IC50 determinations were made were performed as follows. […] Louis, Mo.). The assayed hydroxamic acid samples were incubated in MicrofluorTM White Plates (Dynatech, Chantilly, Va.) and analyzed on a Perkin Elmer […] plate reader (Norwalk, Conn.). The excitation wavelength was 328 nm, and the emission wavelength-415 nm. […] As stated in the previous paragraph, samples containing varying concentrations of the same assayed hydroxamic acid were prepared. Inhibition was measured as a reduction in fluorescent intensity as a function of MMP inhibitor concentration. […] All values in Table 2 are given in nM units. The IC50 measurements are in parenthesis.

MMP-9 = molecular target: T2, MMP-9 (Homo sapiens, UniProt P14780); assay: as above; format: biochemical; details: value in parenthesis; read-out: MMP-9 (IC-50)
T2 construct: made in house; host or cells: MMP-9-transfected HT1080 cells (spent media)
T2 sequence (P14780 107-707 limits assumed): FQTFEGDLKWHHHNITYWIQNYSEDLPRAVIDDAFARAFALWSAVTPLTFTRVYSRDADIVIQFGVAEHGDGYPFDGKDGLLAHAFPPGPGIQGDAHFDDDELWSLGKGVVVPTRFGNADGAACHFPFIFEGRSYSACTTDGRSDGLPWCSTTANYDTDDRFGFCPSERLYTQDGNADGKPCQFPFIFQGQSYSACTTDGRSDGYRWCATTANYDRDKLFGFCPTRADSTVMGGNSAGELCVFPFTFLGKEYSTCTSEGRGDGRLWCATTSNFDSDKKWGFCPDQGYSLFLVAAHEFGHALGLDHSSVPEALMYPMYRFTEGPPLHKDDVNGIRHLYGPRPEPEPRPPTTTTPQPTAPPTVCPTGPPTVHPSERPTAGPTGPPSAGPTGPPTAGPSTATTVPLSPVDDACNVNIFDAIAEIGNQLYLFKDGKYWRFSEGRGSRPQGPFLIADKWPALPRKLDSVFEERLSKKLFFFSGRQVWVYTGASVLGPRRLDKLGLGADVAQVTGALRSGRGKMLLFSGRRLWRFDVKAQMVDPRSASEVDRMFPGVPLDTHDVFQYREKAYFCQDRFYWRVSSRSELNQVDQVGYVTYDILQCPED
Method: Several hydroxamic acids and salts thereof were analyzed in in vitro assays to determine their ability to inhibit the MMP cleavage of peptide substrates. […] and IC50 constants were calculated from the assayed hydroxamic acid-MMP interactions. Human recombinant MMP-1, MMP-2, MMP-9, MMP-13, and MMP-14 were used in this assay. All enzymes were prepared in Assignee's laboratories following usual laboratory procedures. Protocols for the preparation and use of these enzymes are available in the scientific literature. See, e.g., Enzyme Nomenclature (Academic Press, San Diego, Calif., 1992) (and the citations therein). See also, Freije et al., “Molecular cloning and expression of collagenase-3, a novel human matrix metalloproteinase produced by breast carcinomas,” J Biol. Chem., 269(24), 16766-16773 (1994). The MMP-9 proenzyme was purified by gelatin Sepharose chromatography from spent media of MMP-9-transfected HT1080 cells provided by Dr. Howard Welgus of Washington University (St. Louis, Mo.). All MMPs were activated using 4-aminophenylmercuric acetate (“APMA”, Sigma Chemical, St. Louis, Mo.) or trypsin. MMP-9 also was activated using human recombinant MMP-3 (purified in Assignee's laboratory following standard cloning and purification techniques). […] Substrate (I) was purchased from Baychem (Redwood City, Calif.), and substrate II was prepared Assignee's laboratory. Substrate I was used in the IC50 determination assays, while substrate II was used in the Ki determination assays. In the absence of MMP inhibitory activity, either substrate is cleaved at the Gly-Leu peptide bond. […] The stock solutions of the assayed hydroxamic acids (or salts thereof) were prepared in 1% dimethyl sulfoxide (DMSO). […] The experiment controls contained the same amount of Buffer A/DMSO as the assayed sample, but contained no hydroxamic acid (or salt thereof). The assays from which the IC50 determinations were made were performed as follows. […] Louis, Mo.). The assayed hydroxamic acid samples were incubated in MicrofluorTM White Plates (Dynatech, Chantilly, Va.) and analyzed on a Perkin Elmer […] plate reader (Norwalk, Conn.). The excitation wavelength was 328 nm, and the emission wavelength-415 nm. […] As stated in the previous paragraph, samples containing varying concentrations of the same assayed hydroxamic acid were prepared. Inhibition was measured as a reduction in fluorescent intensity as a function of MMP inhibitor concentration. […] All values in Table 2 are given in nM units. The IC50 measurements are in parenthesis.

Row | IC50 (MMP-1) [nM] | IC50 (MMP-9) | Compound
1 | > 10000 | 6.3 nM | COCCN1CCC(C(=O)NO)(S(=O)(=O)N2CCN(c3ccc(OC(F)(F)F)cc3)CC2)CC1 [Example 202]
2 | > 10000 | 3.2 nM and 1.9 nM | O=C(NO)C1(S(=O)(=O)N2CCN(c3ccc(OC(F)(F)F)cc3)CC2)CCN(C2CC2)CC1 [Example 203]

More lines, now with the values behind:

Row | Compound | IC50 (MMP-1) [nM] | IC50 (MMP-9)
3 | CCCCCCc1ccc(N2CCN(S(=O)(=O)C3(C(=O)NO)CCN(CCOC)CC3)CC2)cc1 [Example 199] | > 10000 | 1 nM
4 | CCCc1ccc(N2CCN(S(=O)(=O)C3(C(=O)NO)CCN(CCOC)CC3)CC2)cc1 [Example 200] | > 10000 | < 0.1 nM
5 | COCCN1CCC(C(=O)NO)(S(=O)(=O)N2CCN(c3ccc(Br)cc3)CC2)CC1 [Example 201] | 6850 | 5.7 nM
